Structures are written as SMILES.

A short description of the data set: Human HepG2 cell viability assay in 384 well format. Type of data set: toxicity, cell-based. Set-up: dose 125 nL, time 70.5 hour; concentration not given beside the values. The settings on record: HepG2 cells, read-out: Inhibition.
Take `CSC(C)C(=O)NCCCc1cc(N)n(-c2ccccc2)n1` (stereo not drawn): the cytotoxicity at 70.5 h stood at 1.73%. Turning to `Cc1n[nH]c(C2CN(C(=O)CCc3ccsc3)CCO2)n1` (stereo not drawn), the cytotoxicity at 70.5 h was -5.2%. As for `CCc1ccccc1C(=O)N1CCN(S(C)(=O)=O)[C@@H](C)C1`, the figure is -9.19%. As for `CC(C)OCCOCc1cccc(NC(=O)NCc2ccncc2)c1`, the figure is 2.35%; as for `COc1cc(NC(=O)c2ccccc2F)c(C(=O)N(C)C)cc1OC`, -10.5%. The same measure for `NC(=O)c1ccc(N2CCCCC2)c(NC(=O)c2cc(Br)ccc2F)c1`: -5.55%. For the molecule `Cc1cc(CN(C)C(=O)C2CCCN(C(=O)c3cccs3)C2)no1` (stereo not drawn), the cytotoxicity at 70.5 h is -10.3%.

On to `N#Cc1ccc(OCCNc2cccc(C(=O)N3CCOCC3)c2)cc1`, for which the cytotoxicity at 70.5 h is -13.9%. As for `Cc1cc(CNC(=O)NC(C)c2ccncc2)no1` (stereo not drawn), the figure is -9.9%; as for `CCc1noc(C(C)N2CCC(NC(=O)c3ccc(C)s3)CC2)n1` (stereo not drawn), -7.01%; as for `CC(C)(C)c1ccc(C2(C(=O)NCCCS(C)(=O)=O)CC2)cc1`, -1.31%.

Regarding `O=C(C1CCOC1)N1CCC2(CC1)CN(Cc1nccs1)CCO2` (stereo not drawn), the cytotoxicity at 70.5 h is -2.99%.

For `Cc1noc(C)c1CN1CC[C@H]2C[C@H](c3nccs3)O[C@@H]2C1`, the cytotoxicity at 70.5 h is -9.22%. The same measure for `O=C(C1CCOC1)N1CCC2(CCN(Cc3nccs3)CC2)CC1` (stereo not drawn): -15.1%; for `COc1cc(N2CC[C@@H](O)[C@@H]2Cc2ccccc2)ncn1`: -5.14%; for `O=C(c1ccoc1)N1CC[C@@H]2O[C@@H](COCc3ccccn3)CC[C@@H]21`: -3.1%.

Consider `CN1C(=O)CC(c2cnn(C)c2)C12CCN(C(=O)c1ccnnc1)CC2` (stereo not drawn), for which the cytotoxicity at 70.5 h was -9.97%. `CN1CCN(Cc2ccc(F)cc2)Cc2cccnc21`: the cytotoxicity at 70.5 h is -7.2%. As for `O=C(c1ccoc1)N1CC[C@@H]2O[C@@H](COCc3ccncc3)CC[C@@H]21`, the figure is 10.2%; as for `c1cnc(N2CCCC3(CCN(Cc4ccsc4)C3)C2)nc1` (stereo not drawn), 11.1%; as for `CC(C)Nc1ncnc2c1CCN(C(=O)CN(C)C)CC2`, 36.6%.

Take `Cc1nc(COC[C@H]2CCC[C@]23CN(CC2CC2)CCO3)cs1`: the cytotoxicity at 70.5 h was determined as 18.4%. As for `CN(C)C(=O)COCC1CN(Cc2ccsc2)Cc2nccn2C1` (stereo not drawn), the figure is -7.22%. The same measure for `CC1=N[C@@]2(CC[C@@H]3CN(C(=O)NCc4cccc(F)c4)C[C@@H]32)C(=O)N1`: -3.91%. For `O=C(Nc1ccccc1)N1CC(C(=O)N2CCCC2)C2(CCOCC2)C1` (stereo not drawn), the cytotoxicity at 70.5 h is -10.8%. The same measure for `Cc1cccc(NC(=O)N2CC(C(=O)NC(C)C)C3(CCOCC3)C2)c1` (stereo not drawn): 9.15%; for `CC1=N[C@@]2(CC[C@@H]3CN(C(=O)NCc4ccccc4C)C[C@@H]32)C(=O)N1`: 7.73%; for `CC1=N[C@@]2(CC[C@@H]3CN(C(=O)NCCc4ccccc4)C[C@@H]32)C(=O)N1`: 7.76%. As for `CCC1=N[C@@]2(CC[C@@H]3CN(C(=O)NCC4CCCCC4)C[C@@H]32)C(=O)N1`, the cytotoxicity at 70.5 h was -2.69%. The same measure for `O=C(c1cscn1)N1CCC2(CC1)CN(c1ccccn1)CCO2`: -9.14%; for `O=C(NCC1CC1)c1c2c(N3CCCC3)ncnc2n2ccccc12`: 9.08%. The same measure for `COCC(=O)N1CC[C@@H](N2CCN(C)CC2)[C@@H]1Cc1ccccc1`: 9.62%; for `CNC(=O)C1=NOC2(CCN(Cc3nccs3)C2)C1` (stereo not drawn): -3.01%; for `Cc1cc2ccccc2n1CCC(=O)N1CCCC2(CC1)CNC(=O)O2` (stereo not drawn): -7.42%. The same measure for `Cc1cc(C(=O)N(Cc2c(C)nn(C)c2C)C(C)C)nc(C)n1`: 17%; for `NC(=O)c1csc(N2CCN(C3CCc4ccccc4C3)CC2)n1` (stereo not drawn): -14.7%; for `CS(=O)(=O)CCN1C[C@H](NC(=O)c2cnc(O)cn2)[C@@H](C2CC2)C1`: 11.1%. On to `O=C(CCc1nc(-c2ccccc2)no1)N[C@H]1COC[C@@H]1N1CCCC1`, for which the cytotoxicity at 70.5 h was -9.03%.

`CCC(Nc1nc(CCN)nc2ccccc12)c1cccs1` (stereo not drawn): the cytotoxicity at 70.5 h is -3.38%. Take `CCC(NC(=O)C1CCN(C(C)C)CC1)c1cn2cccnc2n1` (stereo not drawn): the cytotoxicity at 70.5 h is -2.43%.

Consider `Cc1nn(C)c2nc(NCCCN3CCCC(C(N)=O)C3)sc12` (stereo not drawn), for which the cytotoxicity at 70.5 h was -8.69%. Turning to `CSc1cccc(NC(=O)N2CCCC(CNC(=O)c3ccco3)C2)c1` (stereo not drawn), the cytotoxicity at 70.5 h was -8.32%. With `CC(C)CCN1CC2(CCN(C3CCCOC3)CC2)OC1=O` (stereo not drawn), the cytotoxicity at 70.5 h was -8.74%. The same measure for `Cc1cccc2c1nc(COCC(=O)O)n2-c1ccc(N)nc1`: 9.09%. Take `CN(C)CCO[C@H]1C[C@@H](O)C12CCN(c1ncccc1Cl)CC2`: the cytotoxicity at 70.5 h is -5.24%. The same measure for `O=C(O)c1cc(-c2ccoc2)cc(S(=O)(=O)NCc2ccccn2)c1`: -8.18%; for `COc1ccc2c(c1)OCC(Cc1cc(C(=O)N3CCCC3)ccn1)C2` (stereo not drawn): -32.3%. The same measure for `O=C1NCCCc2[nH]c(C3CCN(C(=O)C4CC4)CC3)nc21`: 11.6%.

`Cc1nc(N(Cc2ccncc2)CC2CCCO2)c2ccsc2n1` (stereo not drawn): the cytotoxicity at 70.5 h is -5.47%. Turning to `CCCS(=O)(=O)NCc1cccnc1Oc1ccc(C)c(F)c1F`, the cytotoxicity at 70.5 h was -1.35%.

As to `CCOC[C@]12COC[C@H]1CN(Cc1cccc(OC)c1)C2`, the cytotoxicity at 70.5 h is -5.95%. For `CCn1ncc2c1C(COCC1CC1)CN(C(=O)c1ccncn1)C2` (stereo not drawn), the cytotoxicity at 70.5 h is -10.2%. For `Cc1noc([C@@H]2CCO[C@@H]3CCN(Cc4ccc(C)s4)C[C@@H]32)n1`, the cytotoxicity at 70.5 h was -10.1%. As for `Cn1ncc2c1C(COCC1CC1)CN(C(=O)c1cscn1)C2` (stereo not drawn), the figure is -7.06%.

On to `COCC(=O)N1CCC2(CC1)COCCN2Cc1ccc(F)cc1`, for which the cytotoxicity at 70.5 h was -11.6%. `O=C(N1CCOCC1)N1C[C@H]2CN(Cc3nccs3)C[C@H]2C1`: the cytotoxicity at 70.5 h came to 3.41%. Regarding `CCOCC1CN(C(=O)c2ccnnc2)Cc2cnn(CC)c21` (stereo not drawn), the cytotoxicity at 70.5 h was -6.52%. In the case of `CNC(=O)CN1CCC12CCN(C(=O)Cc1ccccc1)C2` (stereo not drawn), the cytotoxicity at 70.5 h was -17.2%.

Take `O=C(c1ccco1)N1CC[C@@H]2O[C@@H](COCCN3CCCC3)CC[C@@H]21`: the cytotoxicity at 70.5 h was -3.08%. In the case of `Cc1nc(COC[C@H]2CCC[C@@]23CN(C(C)C)CCO3)cs1`, the cytotoxicity at 70.5 h is -6.88%. The same measure for `O=C(c1ccoc1)N1CC[C@@H]2O[C@@H](COCCN3CCCC3)CC[C@@H]21`: -12.6%; for `O=C(c1ccco1)N1CC[C@@H]2O[C@H](COCCN3CCCC3)CC[C@@H]21`: 10.5%; for `c1cnc(N2CCC3(CCCN(Cc4ccncc4)C3)CC2)nc1`: 18.3%. With `Cc1ccc2c(n1)N(CC(C)C)CCN(S(C)(=O)=O)C2`, the cytotoxicity at 70.5 h was -6.3%. As for `Cc1occc1C(=O)N1CCC2(CC1)CN(c1ccccn1)CCO2`, the figure is -5.88%; as for `Cc1noc(C)c1CN1CC[C@H]2OCC[C@@]2(C(=O)NC2CCCC2)C1`, -9.16%; as for `O=S(=O)(NCC1COCc2c(-c3ccncc3)nnn2C1)C1CC1` (stereo not drawn), -3.99%. As for `Cc1ccoc1C(=O)N1CCn2nnc(COc3cccnc3)c2C1`, the figure is -11.5%; as for `COc1cc(N2C[C@H]3CCC[C@@H](CN(C)C)[C@H]3C2)ncn1`, -10.1%. The same measure for `Cn1cccc1C(=O)N1CCn2nnc(COc3cccnc3)c2C1`: -8.46%. As for `COc1cc(N2C[C@H]3CCC[C@@H](CN4CCOCC4)[C@H]3C2)ncn1`, the cytotoxicity at 70.5 h is -8.48%.

As to `c1cc(CN2C[C@@H]3OCCN(CC4CCCO4)[C@@H]3C2)cs1` (stereo partly drawn), the cytotoxicity at 70.5 h was -7.25%. As for `COc1cccc(CN2C[C@@H]3COC[C@]3(COc3cccnc3)C2)c1`, the figure is 3.66%; as for `COc1cccc(CN2C[C@@H]3COC[C@]3(CN3CCOCC3)C2)c1`, 6.49%. The same measure for `O=C1N(c2cncnc2)CCC12CCCN(Cc1cccnc1)C2` (stereo not drawn): -3.72%. As for `c1cc(COC[C@]23COC[C@H]2CN(CC2CCC2)C3)ccn1`, the figure is -11.8%; as for `CNC(=O)CN1CCOCC12CCN(CCc1ccccc1)CC2`, -13.5%; as for `COc1cc(N2C[C@@H]3COC[C@]3(COCc3ccccn3)C2)ncn1`, -4.79%. Regarding `Fc1cnc(N2CCCC3(CCN(Cc4cccs4)C3)C2)nc1` (stereo not drawn), the cytotoxicity at 70.5 h was -2.04%. Take `Fc1ccc(CN2CCC3(CC2)CCN(c2ncccn2)CC3)cc1`: the cytotoxicity at 70.5 h stood at 10.9%. As for `Cc1cccc(CN2Cc3nccn3CC(CN3CCOCC3)C2)c1` (stereo not drawn), the figure is -9.03%; as for `c1nc(CNC2CCOCC2)c2n1CCCN(CC1CC1)C2`, -3.82%; as for `CCS(=O)(=O)N1CCN(Cc2ccncc2)c2nc(C)ccc2C1`, -5.64%. The same measure for `O=C(c1cccnc1)N1CCn2nnc(COc3ccccn3)c2C1`: -14.2%; for `CCS(=O)(=O)N1CCN(Cc2cccnc2)c2nc(C)ccc2C1`: 5.16%. Regarding `c1cncc(OCC2CN(Cc3ccsc3)Cc3nccn3C2)c1` (stereo not drawn), the cytotoxicity at 70.5 h stood at 6.26%. `CS(=O)(=O)NCc1ncn2c1CN(Cc1cccs1)CCC2`: the cytotoxicity at 70.5 h was -7.97%. As to `O=C1CC2(CCN(Cc3cccnc3)C2)CN1c1ccc2c(c1)OCO2` (stereo not drawn), the cytotoxicity at 70.5 h turned out to be 12.8%.

As for `O=C1CO[C@@H]2CN(Cc3cccs3)C[C@H]2N1Cc1cccnc1`, the cytotoxicity at 70.5 h was -10.9%. Regarding `c1ccc(CN2C[C@@H]3COC[C@]3(COCc3ccncc3)C2)nc1`, the cytotoxicity at 70.5 h was -2.45%. For the molecule `COc1ccc(CN2C[C@@H]3OCCN(CCN(C)C)[C@@H]3C2)cc1`, the cytotoxicity at 70.5 h is -3.2%.

In the case of `CCc1ccc(CN2Cc3nccn3CC(CN3CCOCC3)C2)o1` (stereo not drawn), the cytotoxicity at 70.5 h was -5.92%. As for `O=C1CO[C@@H]2CN(Cc3cccnc3)C[C@H]2N1Cc1ccncc1`, the figure is -6.09%.

The values above are taken from ChEMBL document CHEMBL3507680, “University of Dundee, Gates Library screen for HepG2 cell viability”.
